According to article PMC2932999 (Journal of Medicinal Chemistry, 2010):

What was measured:
[1] = molecular target: D197 Perth NA (B/Perth/211/2001 wild type neuraminidase) (Influenza B virus, UniProt Q3S340); assay type: biochemical; details: read-out: Km for MUNANA
[2] = molecular target: D197 Gifu NA (B/Gifu/11/2005 wild type neuraminidase) (Influenza B virus, UniProt Q38G88); assay type: biochemical; details: read-out: Km for MUNANA
[3] = test system: wild type D197 NAs (B/Perth and B/Gifu); assay type: biochemical, influenza B virus
[4] = in vivo; cited from earlier work
[5] = molecular target: recombinant B/Perth/211/2001 wild type D197 neuraminidase heads (influenza B virus B/Perth/211/2001); assay: negative-stain electron microscopy

Row | Molecule | association of inhibitor with NA [3] | dissociation of inhibitor from NA [3] | other results
1 | CC(=O)N[C@H]1[C@H]([C@H](O)[C@H](O)CO)OC(Oc2ccc3c(C)cc(=O)oc3c2)(C(=O)O)C[C@@H]1O (some centres unmarked) [MUNANA, 4-methylumbelliferyl-N-acetylneuraminic acid] |  |  | Km [1]: 12.4 ± 4.2 µM; Km [2]: 10.5 ± 1.4 µM
2 | CC(=O)N[C@H]1[C@H]([C@H](O)[C@H](O)CO)OC(C(=O)O)=C[C@@H]1NC(=N)N [compound 1, zanamivir] | slow association | slow dissociation | levels delivered to the upper respiratory tract [4]: up to 10 000 nmol/L
3 | CCC(CC)[C@H](NC(C)=O)[C@@H]1[C@H](O)[C@@H](C(=O)O)C[C@H]1NC(=N)N [compound 3, peramivir] | slow association | slow dissociation | 
4 | recombinant B/Perth/211/2001 wild type D197 neuraminidase heads (enzyme) |  |  | stoichiometry N [5]: 4
